The numbers were not newly measured in patent US20100292199A1 (priority 2007, published 2010), which cites them from elsewhere.

SMILES strings stand for the structures.

`C[C@]12CC[C@H]3[C@@H](CCC4=CC(=O)CC[C@@]43C)[C@@H]1CC[C@@H]2O` [Testosterone]: the “solubility in ethyl alcohol” value (ethyl alcohol) is recorded as “soluble in ethyl alcohol”. Under “water”, the solubility in water entry is “insoluble in water”.
